Assay: Experiments on use of pyridone compounds in emulsions
Format: physicochemical
Source text: When an emulsion “breaks”, the oily and aqueous phases separate, leading to unwanted coalescence, i.e. a kind of confluence or coagulation of the constituents. This often results in a change in pH and may even cause the active ingredient to crystallize out. This disadvantageous property of pirfenidone is not discussed in said patents and patent applications and no teaching is offered to remedy the problem. Creams are merely cited as a possible topical form of application.

Behaviour in emulsions: behave as emulsion breakers
Compound: Cc1ccc(=O)n(-c2ccccc2)c1 [pirfenidone, 5-methyl-1-phenyl-2-(1H)-pyridone]
